Converted amounts (≈) assume the structure as drawn.
Columns and labels:
[1] = system: CCRF-CEM; assay: NCI-60 DTP human tumor cell line screening; type: cell-based; conditions: Leukemia CCRF-CEM
[2] = system: HL-60 (TB); assay: NCI-60 DTP human tumor cell line screening; type: cell-based
[3] = system: MOLT-4; assay: NCI-60 DTP human tumor cell line screening; type: cell-based; conditions: Leukemia MOLT-4
[4] = system: A549/ATCC; assay: NCI-60 DTP human tumor cell line screening; type: cell-based; conditions: Non-small cell lung cancer A549/ATCC
[5] = system: HOP-62; assay: NCI-60 DTP human tumor cell line screening; type: cell-based; conditions: Non-small cell lung cancer HOP-62
[6] = system: NCI-H226; assay: NCI-60 DTP human tumor cell line screening; type: cell-based; conditions: Non-small cell lung cancer NCI-H226
[7] = system: HCT-116; assay: NCI-60 DTP human tumor cell line screening; type: cell-based; conditions: Colon cancer HCT-116
[8] = system: SW-620; assay: NCI-60 DTP human tumor cell line screening; type: cell-based
[9] = system: SF-268; assay: NCI-60 DTP human tumor cell line screening; type: cell-based; conditions: CNS cancer SF-268
[10] = system: SF-539; assay: NCI-60 DTP human tumor cell line screening; type: cell-based; conditions: CNS cancer SF-539
[11] = system: U251; assay: NCI-60 DTP human tumor cell line screening; type: cell-based; conditions: CNS cancer U251
[12] = system: LOX IMVI; assay: NCI-60 DTP human tumor cell line screening; type: cell-based; conditions: Melanoma LOX IMVI
[13] = system: MALME-3M; assay: NCI-60 DTP human tumor cell line screening; type: cell-based; conditions: Melanoma MALME-3M
[14] = system: M-14; assay: NCI-60 DTP human tumor cell line screening; type: cell-based; conditions: Melanoma M-14
[15] = system: MDA-MB-435; assay: NCI-60 DTP human tumor cell line screening; type: cell-based
[16] = system: SK-MEL-2; assay: NCI-60 DTP human tumor cell line screening; type: cell-based; conditions: Melanoma SK-MEL-2
[17] = system: UACC-257; assay: NCI-60 DTP human tumor cell line screening; type: cell-based; conditions: Melanoma UACC-257
[18] = system: UACC-62; assay: NCI-60 DTP human tumor cell line screening; type: cell-based; conditions: Melanoma UACC-62
[19] = system: IGROV1; assay: NCI-60 DTP human tumor cell line screening; type: cell-based; conditions: Ovarian cancer IGROV1
[20] = system: OVCAR-4; assay: NCI-60 DTP human tumor cell line screening; type: cell-based; conditions: Ovarian cancer OVCAR-4
[21] = system: OVCAR-8; assay: NCI-60 DTP human tumor cell line screening; type: cell-based; conditions: Ovarian cancer OVCAR-8
[22] = system: A498; assay: NCI-60 DTP human tumor cell line screening; type: cell-based; conditions: Renal cancer A498
[23] = system: CAKI-1; assay: NCI-60 DTP human tumor cell line screening; type: cell-based; conditions: Renal cancer CAKI-1
[24] = system: SN 12C; assay: NCI-60 DTP human tumor cell line screening; type: cell-based; conditions: Renal cancer SN 12C
[25] = system: TK-10; assay: NCI-60 DTP human tumor cell line screening; type: cell-based
[26] = system: DU-145; assay: NCI-60 DTP human tumor cell line screening; type: cell-based; conditions: Prostate cancer DU-145
[27] = system: MDA-MB-231/ATCC; assay: NCI-60 DTP human tumor cell line screening; type: cell-based; conditions: Breast cancer MDA-MB-231/ATCC
[28] = system: HS 578T; assay: NCI-60 DTP human tumor cell line screening; type: cell-based; conditions: Breast cancer HS 578T
[29] = system: BT-549; assay: NCI-60 DTP human tumor cell line screening; type: cell-based; conditions: Breast cancer BT-549
[30] = system: MDA-MB-468; assay: NCI-60 DTP human tumor cell line screening; type: cell-based
[31] = system: P. acnes ATCC 11827; assay: Antibacterial activity, MIC in broth serial dilution
Protocol: Compounds were tested at serial dilutions in bacterial broth starting at 100 μg/cm^3 (final concentration). P. acnes (ATCC 11827, lot 419697) was grown in thioglycollate nutrient broth (Hardy Diagnostics K29) for 72 h at 33 °C, then inoculated at the density equivalent to 0.5 McFarland standard and incubated with the test materials for another 72 h in an anaerobic environment. […] At the end of the incubation the MIC was assessed optically as the lowest concentration of a test material which caused no bacteria growth [34]. This optical assessment was further confirmed by measuring the absorbance at 655 nm with the BioRad 3550-UV microplate reader. The MIC was defined as at least 50 % inhibition of the increase of OD.

[32] = system: panel of 60 human tumor cell lines; assay: NCI-60 DTP human tumor cell line screening, whole panel

Compound: NC(=NS(=O)(=O)c1ccccc1Cl)c1ccc2ccccc2n1 [Compound 15, N′-(2-Chlorophenylsulfonyl)quinoline-2-carboximidamide]
- GI50 ([1]; Homo sapiens): 3.65 µM
- TGI [1]: ^c (Determined TGI values were >100 μM)
- inhibition at 10 µM ([2]; Homo sapiens, HL-60, read-out: Growth inhibition ΔGI): 19.7%
- GI50 ([2]; Homo sapiens, Leukemia HL-60 (TB)): 2.29 µM
- TGI ([2]; Leukemia HL-60 (TB)): 8.41 µM
- GI50 ([3]; Homo sapiens): 5.91 µM
- TGI [3]: ^c (Determined TGI values were >100 μM)
- GI50 ([4]; Homo sapiens): 5.37 µM
- TGI [4]: ^c (Determined TGI values were >100 μM)
- GI50 ([5]; Homo sapiens): 5.37 µM
- TGI [5]: ^c (Determined TGI values were >100 μM)
- GI50 ([6]; Homo sapiens): 10.8 µM
- TGI [6]: ^c (Determined TGI values were >100 μM)
- TGI [7]: ^c (Determined TGI values were >100 μM)
- GI50 ([7]; Homo sapiens): 4.66 µM
- TGI ([8]; Colon cancer SW-620): ^c (Determined TGI values were >100 μM)
- inhibition at 10 µM ([8]; Homo sapiens, SW-620, read-out: Growth inhibition ΔGI): 24.7%
- GI50 ([8]; Homo sapiens, Colon cancer SW-620): 3.45 µM
- TGI [9]: ^c (Determined TGI values were >100 μM)
- GI50 ([9]; Homo sapiens): 6.79 µM
- TGI [10]: ^c (Determined TGI values were >100 μM)
- GI50 ([10]; Homo sapiens): 4.19 µM
- TGI [11]: ^c (Determined TGI values were >100 μM)
- GI50 ([11]; Homo sapiens, U-251): 4.48 µM
- GI50 ([12]; Homo sapiens): 4.05 µM
- TGI [12]: ^c (Determined TGI values were >100 μM)
- GI50 ([13]; Homo sapiens): 5.42 µM
- TGI [13]: ^c (Determined TGI values were >100 μM)
- GI50 ([14]; Homo sapiens, M14): 3.61 µM
- TGI [14]: ^c (Determined TGI values were >100 μM)
- inhibition at 10 µM ([15]; Homo sapiens, MDA-MB-435, read-out: Growth inhibition ΔGI): 80.4%
- GI50 ([15]; Homo sapiens, Melanoma MDA-MB-435): 1.13 µM
- TGI ([15]; Melanoma MDA-MB-435): 3.78 µM
- GI50 ([16]; Homo sapiens): 3.4 µM
- TGI [16]: ^c (Determined TGI values were >100 μM)
- GI50 ([17]; Homo sapiens): 11.7 µM
- TGI [17]: ^c (Determined TGI values were >100 μM)
- GI50 ([18]; Homo sapiens): 6.07 µM
- TGI [18]: ^c (Determined TGI values were >100 μM)
- GI50 ([19]; Homo sapiens, IGROV-1): 9.42 µM
- TGI [19]: ^c (Determined TGI values were >100 μM)
- GI50 ([20]; Homo sapiens): 9.15 µM
- TGI [20]: 9.53 µM
- GI50 ([21]; Homo sapiens): 5.74 µM
- TGI [21]: 12.00 µM
- GI50 ([22]; Homo sapiens): 8.08 µM
- TGI [22]: ^c (Determined TGI values were >100 μM)
- GI50 ([23]; Homo sapiens): 5.21 µM
- TGI [23]: ^c (Determined TGI values were >100 μM)
- GI50 ([24]; Homo sapiens, SN12C): 7.67 µM
- TGI [24]: ^c (Determined TGI values were >100 μM)
- inhibition at 10 µM ([25]; Homo sapiens, TK-10, read-out: Growth inhibition ΔGI): 21.7%
- GI50 ([25]; Homo sapiens, Renal cancer TK-10): 6.02 µM
- TGI ([25]; Renal cancer TK-10): 7.08 µM
- GI50 ([26]; Homo sapiens): 4.96 µM
- TGI [26]: ^c (Determined TGI values were >100 μM)
- TGI [27]: ^c (Determined TGI values were >100 μM)
- GI50 ([27]; Homo sapiens): 13 µM
- TGI [28]: ^c (Determined TGI values were >100 μM)
- GI50 ([28]; Homo sapiens): 8.98 µM
- TGI [29]: 56.00 µM
- GI50 ([29]; Homo sapiens): 5.08 µM
- TGI ([30]; Breast cancer MDA-MB-468): 6.19 µM
- inhibition at 10 µM ([30]; Homo sapiens, MDA-MB-468, read-out: Growth inhibition ΔGI): 42.2%
- GI50 ([30]; Homo sapiens, Breast cancer MDA-MB-468): 2.01 µM
- MIC ([31]; Cutibacterium acnes, ATCC11827, 72 h, read-out: MIC P. acnes, P. acnes ATCC 11827, 72 h anaerobic): 12.5 to 50 µg/mL (≈ 36.1 to 145 µM)
- MIC P. acnes ([31]; P. acnes ATCC 11827, 72 h anaerobic): 12.5 µg/mL (≈ 36.1 µM)
- Growth percent mean values (MG_MID) ([32]; 10 μM, mean of growth percent for all tested cell lines): 53.4%
- GI50 ([32]; Homo sapiens): 0.92 to 13 µM
- CC50 ([32]; Homo sapiens, SK-MEL-5, read-out: LC 50): > 100 µM

Source: PMC4494771, “Synthesis, structure, and biological activity of novel heterocyclic sulfonyl-carboximidamides” (Monatshefte Fur Chemie, 2013)
